Columns and labels:
[1] = target: T1, High affinity 3',5'-cyclic-AMP phosphodiesterase 7A (Homo sapiens, UniProt Q13946); assay: Inhibition of cloned human recombinant PDE7A assessed as [3H]cAMP hydrolysis at 1 uM by radiometric assay
[2] = target: T1, High affinity 3',5'-cyclic-AMP phosphodiesterase 7A; assay: Inhibition of cloned human recombinant PDE7A assessed as [3H]cAMP hydrolysis by radiometric assay
Mus musculus = assay: Neurotoxicity in sc dosed C57BL/6 mouse assessed as induction of catalepsy measured at 0.5 to 1 hr; assay type: toxicity, organism-based; conditions: in vivo

T1 sequence (Q13946 whole entry): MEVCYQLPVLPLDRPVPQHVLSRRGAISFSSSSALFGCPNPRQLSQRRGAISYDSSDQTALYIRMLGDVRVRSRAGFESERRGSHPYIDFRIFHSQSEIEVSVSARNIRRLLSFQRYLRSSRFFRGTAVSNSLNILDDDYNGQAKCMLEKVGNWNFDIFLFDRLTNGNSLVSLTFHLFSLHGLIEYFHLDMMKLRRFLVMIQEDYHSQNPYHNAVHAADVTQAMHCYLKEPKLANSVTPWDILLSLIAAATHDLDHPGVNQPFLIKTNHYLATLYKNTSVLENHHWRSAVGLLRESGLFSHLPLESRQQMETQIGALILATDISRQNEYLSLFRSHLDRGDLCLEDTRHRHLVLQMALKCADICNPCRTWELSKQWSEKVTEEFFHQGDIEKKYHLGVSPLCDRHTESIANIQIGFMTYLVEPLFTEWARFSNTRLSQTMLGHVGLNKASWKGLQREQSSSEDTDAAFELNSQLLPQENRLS

Row | IC50 [2] | SMILES | further results
1 | – | COc1cc(N2CCC(N)CC2)ccc1-c1nc2c(C)nn(Cc3ccccc3)c(=O)c2[nH]1 | inhibition [1]: 13%
2 | 80 nM | COc1cc(N2CC[C@H](N)C2)ccc1-c1nc2c(C)nn(C3CCCCC3)c(=O)c2[nH]1 | –
3 | – | CCCCC(CC)Cn1nc(C)c2nc(-c3ccc(N4CCC(N)CC4)cc3OC)[nH]c2c1=O (configuration not stated) | inhibition [1]: 6%
4 | 104 nM | COc1cc(N2CCNCC2)ccc1-c1nc2c(C)nn(C3CCCCC3)c(=O)c2[nH]1 | –
5 | 77 nM | COc1cc(N2CC[C@@H](N)C2)ccc1-c1nc2c(C)nn(C3CCCCC3)c(=O)c2[nH]1 | –
6 | – | O=C(CCCN1CCC(O)(c2ccc(Cl)cc2)CC1)c1ccc(F)cc1 [HALOPERIDOL] | Activity (Mus musculus): Dose-dependent effect
7 | 71 nM | COc1cc(N2CCC(O)C2)ccc1-c1nc2c(C)nn(C3CCCCC3)c(=O)c2[nH]1 (configuration not stated) | –

From ChEMBL document CHEMBL2169851, “Imidazopyridazinones as novel PDE7 inhibitors: SAR and in vivo studies in Parkinson's disease model” (Bioorg Med Chem Lett, 2012)
